Experimental data from paper PMC4010497, “Synthesis and Evaluation of Fluorine-Substituted Phenyl Acetate Derivatives as Ultra-Short Recovery Sedative/Hypnotic Agents” (PLoS ONE, 2014).

Legend:
[1] = test system: rabbits; assay: Therapeutic index (LD50/HD50) in rabbits; assay type: in vivo, rabbit
Description: The LD50 was determined in mice, rats, and rabbits and the TI was calculated as LD50/HD50.

[2] = In vitro metabolic half-life in human whole blood; assay type: in vitro ADME; details: male, Human (n = 4), 37°C, read-out: Mean t1/2 Value
Description: Human whole blood stability experiments were conducted in whole blood from four human donors (male, 18–25 years). Single experiments were conducted with pooled blood from Sprague-Dawley rats (male, 8 weeks, n = 3), New Zealand White rabbits (male, 8–10 weeks, n = 3), Beagle dogs (male, 2–3 years, n = 3) and Cynomolgus monkeys (male, 3–4 years, n = 3). All the blood samples were provided by Xuzhou Medical College. A 1.35-ml aliquot of blood was warmed at 37°C for 5 min and hypnotic (from a 40 mM stock in DMSO solution) was added to a final concentration of 200 µM. After the specified incubation time, a 150-µl sample was removed and the metabolic reaction was quenched using 150-µl acetonitrile. Zero time-point samples were prepared by adding 150-µl acetonitrile (using a 4 mM stock in DMSO) to 150-µl blood before addition of the hypnotic. The quenched samples were centrifuged, and the supernatant was separated and stored at −20°C until analyzed. Hypnotic concentrations in thawed samples were determined by high-performance liquid chromatography using a 3-µm phenyl 4.6×50-mm C-A-25, ACE column with the UV detector set at 240 nm. […] The lower limit of quantitation of this assay is 3 µM and the accuracy within 15% at 10 µM. The metabolic half-lives were quantified from the incubation time-dependent change in drug concentration.

[3] = biological target: T1, human GABAA receptor α1, β2 and γ2 (CHO-K1 cells) (Homo sapiens, UniProt P14867+P18507+P47870); assay: cell-based; details: GABAA (α1β2γ2) CHO-K1 cell
T1 construct: expressed in transfected cells; host or cells: CHO-K1 cells, stably transfected
Description: Chinese hamster ovary (CHO)-K1 cells transfected stably with human GABAA receptor α1, β2 and γ2 subunit cDNAs were used. The cells were plated onto collagen-coated 35-mm cell culture dishes at low density for 1–7 days before recording. Test solutions were prepared in the extracellular solution on the day the patch-clamp assay was performed. The intracellular solution consisted of 22 mM KCl, 110 mM K-aspartate, 8 mM NaCl, 1 mM MgCl2, 1 mM CaCl2, 10 mM ethylene glycol tetraacetic acid, 5 mM Na2ATP, 10 mM hydroxyethyl piperazineethanesulfonic acid (HEPES) (adjusted to pH 7.2 using KOH), while the extracellular solution contained 145 mM NaCl, 4 mM KCl, 2 mM CaCl2, 2 mM MgCl2, 10 mM HEPES (adjusted to pH 7.4 using NaOH). The assay was performed at room temperature. Cells were maintained at −70 mV and the potentiation effect was assessed by co-application of the test compound with EC20 of muscimol after the cell was pre-incubated with the test compound for 45 s. GABA EC20 measured individually in each cell. The amplitude of the Cl− current in response to muscimol and/or test compound was determined. The response to the co-application of the test compound and muscimol was normalized to the control muscimol response as a percentage of the control. A potentiation effect was indicated by a value >100% of the control response. EC50 values were calculated using the four parameter logistic equation, where E was the amplitude of the muscimol-induced current in the presence of the anesthetic at concentration [A], EMAX was the amplitude of the response in the presence of a maximally effective concentration of the anesthetic, EC50 was the concentration of anesthetic producing a half-maximal enhancement of the muscimol-induced response and nH was the Hill coefficient. [drawing 1]

[4] = In vitro metabolic half-life in dog whole blood; assay type: in vitro ADME, Beagle dog
Description: Human whole blood stability experiments were conducted in whole blood from four human donors (male, 18–25 years). Single experiments were conducted with pooled blood from Sprague-Dawley rats (male, 8 weeks, n = 3), New Zealand White rabbits (male, 8–10 weeks, n = 3), Beagle dogs (male, 2–3 years, n = 3) and Cynomolgus monkeys (male, 3–4 years, n = 3). All the blood samples were provided by Xuzhou Medical College. A 1.35-ml aliquot of blood was warmed at 37°C for 5 min and hypnotic (from a 40 mM stock in DMSO solution) was added to a final concentration of 200 µM. After the specified incubation time, a 150-µl sample was removed and the metabolic reaction was quenched using 150-µl acetonitrile. Zero time-point samples were prepared by adding 150-µl acetonitrile (using a 4 mM stock in DMSO) to 150-µl blood before addition of the hypnotic. The quenched samples were centrifuged, and the supernatant was separated and stored at −20°C until analyzed. Hypnotic concentrations in thawed samples were determined by high-performance liquid chromatography using a 3-µm phenyl 4.6×50-mm C-A-25, ACE column with the UV detector set at 240 nm. A linear gradient 20–45% acetonitrile in water with 0.05% trifluoroacetic acid was run for more than 20 min at a flow rate of 1 ml/min. The lower limit of quantitation of this assay is 3 µM and the accuracy within 15% at 10 µM. The metabolic half-lives were quantified from the incubation time-dependent change in drug concentration.

[5] = test system: mice; assay: animal or person; assay type: in vivo; details: mice
Description: All tests were performed during the light period. Groups of mice, rats and rabbits were injected intravenously (lateral tail vein) over 10 s with each dose of test compound, placed in separate boxes to reduce external stimuli and assessed for the loss of righting reflex. Dosing was performed using mg/kg scheme. A set of dose levels was chosen, and depending on whether the loss of righting reflex was observed, extra doses were introduced to provide data for the loss of righting reflex over a narrow dose range to allow potency calculations. From the percentage of mice, rats and rabbits in each group showing loss of righting reflex for ≥30 s, a probit analysis (SAS Institute) was performed to obtain an HD50 for each compound with 95% confidence limits.
Immediately following the injection, the mice, rats and rabbits were tested for loss of righting reflex. […] Once a loss was observed, the interval between the loss of righting reflex and the return to righting reflex was recorded. The anesthetized animals recovered righting reflexes spontaneously. To compare the duration of LORR of each compound at equipotent doses, groups of mice, rats and rabbits were injected with each compound at 2× HD50 over 10 s.
Time to walk was the time required after righting before mice and rabbits walked from the center to the periphery of a 30-cm diameter dise.
The rotarod test was conducted to evaluate the recovery to the motor coordination. Before the LORR test, mice were trained for 2 consecutive days. Trained mice could maintain their balance on rod for more than 2 mins. After the mice could walk from the center to the periphery of a 30-cm diameter dise, they were put on the rotarod. Mice were classified as behavioral recovery when, on being placed on the rod, they could maintain their balance for 20 s. The time to behavioral recovery was the time required after mice walked from the centre to the periphery of a 30-cm diameter disc before they could maintain their balance on rod for 20 s.

[6] = Octanol:water partition coefficient; assay type: physicochemical; details: water buffered with 10 mm Tris (pH 7.4)
Description: One mg of each hypnotic was added to 10 ml of water buffered with 10 mm Tris (pH 7.4) and 1 ml of octanol. The mixture was stirred overnight and then centrifuged to fully separate the organic and aqueous phases. The relative hypnotic concentration in each phase (i.e., the partition coefficient) was determined by high-performance liquid chromatography as described for blood.

[7] = test system: rabbits; assay: Hypnosis in response to IV infusion in rabbits; assay type: in vivo, rabbit
Description: Induction of hypnosis in rabbits was achieved using 2× HD50 dose of test compound, and immediately after induction, infusion via the tail vein was commenced at half the HD50 dosage per min. the infusion rate was maintained for 20 min or 1 h or 3 h later. The depth of hypnosis was monitored by the magnitude of a withdrawal reflex to intermittent paw pinch provided by a pair of forceps.

T1 sequence (P14867 28-456): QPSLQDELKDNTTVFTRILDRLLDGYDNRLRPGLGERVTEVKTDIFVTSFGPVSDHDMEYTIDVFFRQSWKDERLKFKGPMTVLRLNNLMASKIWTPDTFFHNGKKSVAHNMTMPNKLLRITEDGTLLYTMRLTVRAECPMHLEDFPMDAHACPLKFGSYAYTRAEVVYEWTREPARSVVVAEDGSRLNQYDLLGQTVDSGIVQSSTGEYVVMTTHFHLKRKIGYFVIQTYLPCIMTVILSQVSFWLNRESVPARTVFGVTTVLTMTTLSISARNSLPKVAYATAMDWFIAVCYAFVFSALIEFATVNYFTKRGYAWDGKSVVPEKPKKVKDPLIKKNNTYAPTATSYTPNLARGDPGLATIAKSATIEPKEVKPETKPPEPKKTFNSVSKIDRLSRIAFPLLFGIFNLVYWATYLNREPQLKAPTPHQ
T1 sequence (P47870 25-512 limits assumed): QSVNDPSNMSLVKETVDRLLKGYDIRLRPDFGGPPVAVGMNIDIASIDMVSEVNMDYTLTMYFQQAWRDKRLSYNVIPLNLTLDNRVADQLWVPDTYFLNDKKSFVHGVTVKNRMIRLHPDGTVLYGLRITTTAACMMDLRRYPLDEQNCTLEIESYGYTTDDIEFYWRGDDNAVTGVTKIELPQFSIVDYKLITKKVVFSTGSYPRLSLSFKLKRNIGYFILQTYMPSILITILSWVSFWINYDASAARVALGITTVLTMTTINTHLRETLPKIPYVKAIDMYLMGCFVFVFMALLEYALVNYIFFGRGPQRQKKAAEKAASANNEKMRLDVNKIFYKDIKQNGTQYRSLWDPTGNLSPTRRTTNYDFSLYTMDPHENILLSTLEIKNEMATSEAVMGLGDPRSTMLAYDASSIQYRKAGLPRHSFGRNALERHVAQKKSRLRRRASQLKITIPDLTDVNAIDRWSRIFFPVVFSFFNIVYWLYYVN
T1 sequence (P18507 40-475): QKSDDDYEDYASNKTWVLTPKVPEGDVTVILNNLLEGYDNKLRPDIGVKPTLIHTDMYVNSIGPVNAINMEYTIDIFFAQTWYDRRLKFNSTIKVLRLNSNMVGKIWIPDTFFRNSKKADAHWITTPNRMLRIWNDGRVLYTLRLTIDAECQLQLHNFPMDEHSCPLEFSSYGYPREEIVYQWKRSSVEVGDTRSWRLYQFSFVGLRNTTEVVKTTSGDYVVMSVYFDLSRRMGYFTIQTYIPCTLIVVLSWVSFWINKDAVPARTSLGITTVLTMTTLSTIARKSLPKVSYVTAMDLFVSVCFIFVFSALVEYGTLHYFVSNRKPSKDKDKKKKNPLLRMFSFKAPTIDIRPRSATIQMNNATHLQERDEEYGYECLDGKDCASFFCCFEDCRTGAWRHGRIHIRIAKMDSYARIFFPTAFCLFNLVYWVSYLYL

For `CCOc1cc(CC(=O)OCC(F)(F)F)ccc1OCC(=O)N(CC)CC` [Compound 5j, 2,2,2-trifluoroethyl 2-(4-(2-(diethylamino)-2-oxoethoxy)-3-ethoxyphenyl)acetate], the TI [1] was 21.2, the half-life at 200 µM [2] was 25.5 ± 5.6 min and the “maximum potentiation relative to that of propanidid” value [3] was ~150%. The “maximum potentiation relative to that produced by propofol” value [3] was “approximately 50%”, the EC50 ([3]; patch clamp, read-out: EC50, potentiation of EC20 muscimol evoked chloride currents) was 12 µM and the “stability in blood (in words)” value ([4]; dog blood) was “stable”. The half-life at 200 µM ([4]; male, whole blood, Beagle dog (n = 3), 37°C, 200 µM, read-out: Mean t1/2 Value) was > 60 min, the ED50 ([5]; Mus musculus, IV over 10 s, 95% confidence limits, read-out: HD50 (the source's name)) was 24.6 mg/kg and the Time to walk ([5]; 2× HD50) was 17.3 ± 5.8 s. The “time to behavioral recovery” value ([5]; 2× HD50, rotarod) was 28.2 ± 6.4 s, the “Duration of LORR” value ([5]; IV 2× HD50, mean ± SD (n = 10)) was 59.1 ± 7.4 s and the Onset time ([5]; IV, mean ± SD (n = 10)) was 5.3 ± 1.2 s. For the same compound, the “Octanol:Water Partition (Coefficient ± SD)” value [6] was 648±36, the “duration of LORR after cessation of infusion” value (shortened to “duration of LORR … of infusion”) ([7]; 1-h IV infusion) was 125.8 ± 57.6 s and the “duration of LORR … of infusion” value ([7]; 3-h IV infusion) was 132.9 ± 56.2 s. For the same compound, the “time to walk after infusion” value ([7]; 20-min IV infusion) was 15.5 ± 7.55 s and the “duration of LORR … of infusion” value ([7]; 20-min IV infusion at half the HD50 per min after 2× HD50 induction) was 117.5 ± 47.2 s.
